Reference: paper PMC10945480 (Journal of Medicinal Chemistry, 2024)
Where two headings read alike, the source gives them in different places.

Assays:
PDI = system: PDI; set-up: method as in PMID 22565308, PMID 22988091, PMID 27197150, PMID 24070012, PMID 24624466; conditions: reported PDI inhibitors, Figure 1b; read-out: PDI IC50 measured by the insulin-aggregation assay; cited from earlier work
breast cancer MDA-MB-231 = assay: Cell viability, resazurin assay, MDA-MB-231; conditions: Homo sapiens, MDA-MB-231, 24 h, read-out: MDA-MB-231 IC50
Procedure: (§4) Cells were maintained in a humidified incubator at 37 °C in 5% CO2, and cell viability was determined with the resazurin assay (Cayman Chemical, USA) after the incubation with compounds for indicated concentrations and times or DMSO as control.[72]

washed human platelets [1] = assay: Collagen-induced platelet aggregation; format: cell-based; conditions: Platelet; washed human platelets, collagen (5 μg/mL)
Procedure: (§1) The antiplatelet effects of the JUG derivatives were evaluated by measuring human platelet aggregation, which can be regulated by cell surface PDI. Platelet aggregation was induced with platelet activators U46619 (a mimetic of thromboxane A2) and collagen (binding to GPVI).
(§2) Washed human platelets were prepared from acid citrate dextrose-anticoagulated blood of healthy human volunteers as described previously.[73] The study was approved by the Institutional Review Board of Kaohsiung Medical University, and informed consent was obtained from every volunteer. Platelet aggregation was measured by using a turbidimetric aggregometer (Chrono-Log Co., USA) under stirring conditions (1200 rpm) at 37 °C. The extent of platelet aggregation was measured as the maximal increase of light transmission after the addition of the stimulators U46619 and collagen.[73] In the TCIPA assay, platelet aggregation was induced by A549 (1 × 10^4 cells/mL), MDA-MB-231 (1 × 10^2 cells/mL), or RPMI8226 (1 × 10^5 cells/mL) cancer cells in the presence of 0.375% plasma.[74]

A549 cancer cells = assay: Platelet-enhanced tumor cell proliferation; format: cell-based, human; conditions: A549 plus platelets, 48 h, 0.5 to 2 μM
Procedure: In order to examine platelet-enhanced cancer cell growth, A549 cancer cells were coincubated with platelets for 48 h.
Figure 5 Inhibitory effects of JUG derivatives 18 and 22 on tumor cell-induced platelet secretion and platelet-enhanced tumor cell proliferation. (a) Washed human platelets were coincubated with A549 cancer cells under the same conditions as described in Figure 4. Secretion of PDGF and ATP were determined with the enzyme-linked immunosorbent assay (ELISA) and bioluminescent assay, respectively. (b) A549 cancer cells were coincubated with washed human platelets at 37 °C and 5% CO2 in a cell culture incubator for 48 h. After washing with PBS, the numbers of viable cancer cells were determined by trypan blue exclusion. Data are mean ± SEM of at least three independent experiments. In (a), *P < 0.05; **P < 0.01; ***P < 0.001 as compared with vehicle control (DMSO). In (b), *P < 0.05; **P < 0.01; ***P < 0.001 as compared with A549 cells plus platelets.
A549 cells (1 × 10^4 cells/well) were seeded in a 96-well plate and coincubated with wash human platelets (1 × 10^7 cells/well) containing with 0.375% plasma for 48 h at 37 °C and 5% CO2 in a cell culture incubator. After washing with phosphate buffered saline, the numbers of viable cancer cells were determined by trypan blue exclusion.

[2] = system: multiple myeloma RPMI8226; assay: Cell viability, resazurin assay, RPMI8226; conditions: for S.I. (EAhy926/RPMI8226), selectivity index: 24 h IC50 ratio; for IC50: Homo sapiens
Procedure: as §4

washed human platelets [3] = assay: U46619-induced platelet aggregation; format: cell-based; conditions: Platelet; washed human platelets, U46619 (1 μM)
Procedure: as §1, §2

[4] = Parallel artificial membrane permeability assay (PAMPA); conditions: 50 μM, 25 ℃, 3 h, verapamil = 100%, ranitidine = 0%
Procedure: 1. Parallel artificial membrane permeability assay (PAMPA). […]
evolution instruments from pION Inc. In the PAMPA assay, a set of sandwich plates consists of a 96-well microtiter donor plate at the bottom and a 96-well filter acceptor plate on the top from […]
The stock solutions of samples were prepared at 10 mM concentrations in DMSO and stored at 0 ℃ before use. Before being added to a 96-well filter plate, the stock solution was diluted first with buffer to achieve a final sample concentration of 50 μM and to reduce the DMSO concentration below 1% (v/v). Each well of the 96-well donor plate was filled with a 200 μL diluted sample solution (50 μM), and the 96-well filter acceptor plate was then wetted with a 5 μL 2% w/v dioleyoylphosphatidylcholine (DOPC) in n-dodecane and subsequently placed on the donor wells.
Immediately, the acceptor wells were filled with 200 μL of buffer solution and the PAMPA plate sandwich was sealed and incubated at 25 ℃ for 3 h. After reaching the permeation time, the PAMPA plate sandwich was separated and transferred to 96-well UV plates respectively. The amounts of drugs in both the donor and acceptor compartments were measured by comparing the experimental spectra with the UV spectrum (220∼400 nm) obtained from reference standards.

[5] = system: washed human platelets coincubated with A549, MDA-MB-231, or RPMI8226 cancer cells; assay: Tumor cell-induced platelet aggregation (TCIPA); format: cell-based; conditions: 2 μM; A549, MDA-MB-231, RPMI8226 cells, in the presence of plasma
lung cancer A549 = assay: Cell viability, resazurin assay, A549; conditions: Homo sapiens, A549, 24 h, read-out: A549 IC50
Procedure: as §4

[6] = biological target: purified human recombinant PDI (rPDI) (Homo sapiens, UniProt P07237); assay: Recombinant PDI reductase activity (Di-E-GSSG assay); conditions: human recombinant PDI, Di-E-GSSG
Chain of purified human recombinant PDI (rPDI) (P07237 18-508): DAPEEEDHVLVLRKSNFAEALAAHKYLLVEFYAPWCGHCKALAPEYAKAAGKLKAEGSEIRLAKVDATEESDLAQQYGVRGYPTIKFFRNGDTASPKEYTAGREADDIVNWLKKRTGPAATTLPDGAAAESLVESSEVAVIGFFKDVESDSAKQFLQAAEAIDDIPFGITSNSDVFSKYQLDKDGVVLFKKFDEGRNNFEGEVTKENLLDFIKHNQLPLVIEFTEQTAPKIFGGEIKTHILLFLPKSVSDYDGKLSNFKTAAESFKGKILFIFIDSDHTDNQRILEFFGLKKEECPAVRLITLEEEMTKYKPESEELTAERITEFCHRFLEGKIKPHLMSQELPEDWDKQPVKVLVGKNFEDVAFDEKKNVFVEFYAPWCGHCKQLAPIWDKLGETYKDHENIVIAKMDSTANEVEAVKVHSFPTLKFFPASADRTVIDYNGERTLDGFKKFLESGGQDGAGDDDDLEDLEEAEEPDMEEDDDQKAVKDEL
Procedure: (§5) In this assay, a nonfluorescent substrate, dieosin glutathione disulfide (Di-E-GSSG), was reduced into a fluorescent product eosin-glutathione (E-GSH) by platelet surface PDI in the presence of 5 μM dithiothreitol (DTT).

glioma U87 = assay: Cell viability, resazurin assay, U87; conditions: Homo sapiens, 24 h, read-out: U87 IC50
Procedure: as §4

[7] = system: washed human platelets coincubated with A549 cancer cells; assay: Tumor cell-induced platelet secretion (PDGF, ATP); format: cell-based
Procedure: (a) Washed human platelets were coincubated with A549 cancer cells under the same conditions as described in Figure 4. Secretion of PDGF and ATP were determined with the enzyme-linked immunosorbent assay (ELISA) and bioluminescent assay, respectively. (b) A549 cancer cells were coincubated with washed human platelets at 37 °C and 5% CO2 in a cell culture incubator for 48 h. After washing with PBS, the numbers of viable cancer cells were determined by trypan blue exclusion. Data are mean ± SEM of at least three independent experiments.
Washed human platelets were coincubated with cancer cells under the same conditions as described in the TCIPA assay. After a 25 min incubation in the aggregometer, the samples were centrifuged at 13,000g for 1 min. The concentrations of PDGF-BB and ATP in the supernatants were determined using an ELISA kit (Abcam, Cambridge, UK) and an ATP bioluminescent assay kit (Sigma, MO, USA), respectively.[52]

[8] = system: human vascular endothelial EA.hy926 cells; assay: Cell viability, resazurin assay, EA.hy926; conditions: EA.hy 926, 24 h, read-out: EAhy926 IC50
Procedure: as §4

platelet surface PDI = platelet surface PDI (Homo sapiens, UniProt P07237); assay: Cell surface PDI reductase activity on intact human platelets (Di-E-GSSG assay); conditions: read-out: Surface PDI IC50; intact human platelets, Di-E-GSSG, 5 μM DTT
Chain of platelet surface PDI (P07237 18-508): as above
Procedure: as §5

ERp57 (PDIA3) = biological target: T1, ERp57 (PDIA3) (Homo sapiens, UniProt P30101); assay: ERp57 reductase assay (Di-E-GSSG); format: biochemical; conditions: ERp57 and ERp72 together, fold higher than required to inhibit PDI
T1 sequence (P30101 25-505): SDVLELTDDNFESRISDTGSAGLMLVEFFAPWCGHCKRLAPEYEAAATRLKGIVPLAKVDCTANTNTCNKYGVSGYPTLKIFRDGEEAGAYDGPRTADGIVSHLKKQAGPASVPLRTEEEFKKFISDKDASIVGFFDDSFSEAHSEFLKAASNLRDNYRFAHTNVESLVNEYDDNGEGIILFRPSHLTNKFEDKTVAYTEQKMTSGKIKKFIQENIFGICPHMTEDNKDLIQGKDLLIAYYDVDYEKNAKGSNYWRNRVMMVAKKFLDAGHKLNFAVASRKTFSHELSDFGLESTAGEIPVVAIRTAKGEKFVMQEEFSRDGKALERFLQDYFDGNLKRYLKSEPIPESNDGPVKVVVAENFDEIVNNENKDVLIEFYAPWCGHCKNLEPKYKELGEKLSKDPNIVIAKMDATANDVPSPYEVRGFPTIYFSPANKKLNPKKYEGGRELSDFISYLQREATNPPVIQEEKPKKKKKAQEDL
From the text: In addition to PDI, ERp57 (PDIA3) and ERp72 (PDIA4) are two other major members of the PDI family in both platelets and A549 cells.[62],[63]

[9] = UPLC-MS analysis of compound metabolites in water with or without GSH; format: physicochemical; conditions: 37 °C, 30 min
Procedure: (§3) GSH is the major cellular nonprotein thiol, which exists within cells at millimolar concentrations (1–8 mM) while is present extracellularly at only a few micromolar.[53] The high concentrations of intracellular GSH thus may compete with the binding of PDI to covalent PDI inhibitors.[54] […] In this assay, the noncovalent PDI inhibitor isoquercetin was used as a negative control.
Compounds (400 μM) were incubated in water (250 μL) with or without GSH (4 mM) at 37 °C for 30 min. The compound mixture was diluted with methanol (250 μL) and used for UPLC-MS analysis Metabolite analysis was performed on an ACQUITY UPLC I-Class/SQ Detector 2 (Waters, Milford, USA). The reverse phase BEH C18 column (100 mm × 2.1 mm, 1.7 μm, Waters) and VanGuard BEH C18 guard column (5 mm × 2.1 mm, 1.7 μm, Waters) were used. All data were acquired by Empower 3. The mobile phase for LC separation was Millipore water (A) and acetonitrile (B), and the program was as follows: 0.00 min 90% A → 0.50 min 90% A → 6.50 min 5% A → 8.50 min 5% A → 8.60 min 90% A → 9.00 min 90% A; at a rate of 0.4 mL/min for 9.00 min with 5 μL per injection. The temperature of the column oven was maintained at 40 °C. Mass spectrometer parameters were set as follows: cone voltage, 40.0 V, for positive/negative ion mode; desolvation temperature, 200 °C; cone gas flow(N2), 1 L/h; and desolvation gas flow (N2), 650 L/h.

Human rPDI = Human rPDI (Homo sapiens, UniProt P07237); assay: Effect of GSH on rPDI inhibition (Di-E-GSSG assay); format: biochemical; conditions: 10 μM compound, 1 mM GSH vs 5 μM DTT
Chain of Human rPDI (P07237 18-508): as the sequence (P07237 18-508) above
Procedure: as §3
Data are mean ± SEM of three independent experiments.

[10] = RPMI-8226, 24 h, read-out: RPMI8226 IC50

| SMILES | IC50 (PDI) [µM] | IC50 (breast cancer MDA-MB-231) [µM] | IC50 (washed human platelets [1]) [µM] | S.I. (EAhy926/RPMI8226), selectivity index [2] | IC50 [2, 10] [µM] | IC50 (washed human platelets [3]) [µM] | Permeability (%) [4] [%] | IC50 (lung cancer A549) [µM] | IC50 ([6]; read-out: PDI IC50, Table 4) [µM] | IC50 ([6]; read-out: rPDI IC50, 5 μM DTT) [µM] | IC50 (glioma U87) [µM] | IC50 [8] [µM] | IC50 (platelet surface PDI) [µM] | PDI-inhibitory activity in the presence of GSH (Human rPDI) | further results |
| --- | --- | --- | --- | --- | --- | --- | --- | --- | --- | --- | --- | --- | --- | --- | --- |
| N#Cc1cccc(/C=C/C(=O)c2ccc(O)cc2)c1 [BAP-2] | 0.93 |  |  |  |  |  |  |  |  |  |  |  |  |  |  |
| CC(=O)OC[C@H]1O[C@H](OC2=CC(=O)c3cccc(O)c3C2=O)[C@H](OC(C)=O)[C@@H](OC(C)=O)[C@@H]1OC(C)=O [Compound 22, 2-(2,3,4,6-Tetra-α-O-acetylglucopyranosyl)-8-hydroxynaphthalene-1,4-dione] |  | 4.42 ± 0.98 | 0.5 ± 0.08 | 8.2 | 0.66 ± 0.08 | 1.54 ± 0.02 | 57.45 | 8.95 ± 0.23 | 0.63 ± 0.12 | 0.63 ± 0.12 | 3.22 ± 0.37 | 5.42 ± 0.05 | 0.62 ± 0.06 |  | platelet-enhanced cancer cell growth (A549 cancer cells): to a lesser extent; IC50 ([2]; RPMI-8226, 72 h, read-out: RPMI8226 IC50, 72 h): 0.048 µM; prevention of TCIPA [5]: significantly prevented TCIPA; tumor cell-induced increase in extracellular PDGF and ATP (platelet secretion) [7]: reduced; concentrations inhibiting ERp57 and ERp72 relative to PDI (ERp57 (PDIA3)): 4 to 7 fold |
| CC(=O)OC[C@H]1O[C@@H](SC2=C(c3ccc(O)cc3O)C(=O)c3c(O)cccc3C2=O)[C@H](OC(C)=O)[C@@H](OC(C)=O)[C@@H]1OC(C)=O [Compound 31, 2-(2,4-Dihydroxyphenyl)-3-(2,3,4,6-tetra-O-acetyl-1-thio-β-D-glucopyranose)-8-hydroxynaphthalene-1,4-dione] |  | 11.3 ± 1.09 | 6.65 ± 1.74 | 2.2 | 3.07 ± 0.29 | 3.54 ± 0.11 | 28.86 | 12.6 ± 1.51 |  | 0.67 ± 0.09 | 7.39 ± 0.22 | 6.87 ± 0.21 | 0.46 ± 0.07 | largely reduced by GSH | stability in aqueous conditions (UPLC-MS) ([9]; 400 μM in water): easily hydrolyzed in aqueous condition; GSH adduct formation after GSH treatment (UPLC-MS) ([9]; 400 μM, GSH 4 mM): significant amount of GSH addition product |
| O=C1C=CC(=O)c2c(O)cccc21 [JUG (7), 5-hydroxy-1,4-naphthoquinone, reference compound] |  | 6.15 ± 0.78 | 1.18 ± 0.14 |  | 3.95 ± 0.7 | 4.45 ± 0.47 | 83.43 | 11.9 ± 0.6 | 1.1 ± 0.17 | 1.1 ± 0.17 | 7.45 ± 0.33 | 5.57 ± 0.02 | 0.63 ± 0.07 | completely lost PDI-inhibitory activity |  |
| CCOC(=O)C1(CCOc2ccccc2)CCN(Cc2ccc(O)c(Cl)c2)CC1 [ML359] | 0.25 |  |  |  |  |  |  |  |  |  |  |  |  |  |  |
